Key:
[1] = system: Type II diabetic female db/db mice; assay: Onset of diabetic complication in db/db mice (urine albumin, urine 8-OHdG, blood glucose, kidney histopathology); format: in vivo, mouse
Method: Type II diabetic female db/db mice and non-diabetic db/m were purchased from Clea Japan, Inc. Mice were bred under the conditions with a 12 hours light-dark cycle at a temperature of 21° C. to 25° C. For acclimation, mice were fed CE-2 (Clea Japan, Inc.) with free access to water for one week. The mice were divided into three groups each consisting of 8 mice (non-diabetic db/m, diabetic db/db, and astaxanthin-administered db/db) and each group was bred with feed ad libitum. Mice in astaxanthin-administered group were fed a diet in which 0.02% astaxanthin in terms of free astaxanthin was compounded with CE-2. Each group was bred for 12 weeks, and body weight, blood glucose levels, 8-OHdG levels in urine, albumin levels in urine, and kidney histopathology, were measured. Astaxanthin used here was AstaReal (registered trademark, Fuji Chemical Industry Co., Ltd.) 50F, which is oil composed of astaxanthin fatty acid ester and triglycerides and contains 5% astaxanthin in terms of free astaxanthin.
FIG. 1 is a photomicrograph of glomerulus.

[2] = system: gastrocnemius of Wistar male rats; assay: Muscle atrophy test (sciatic nerve of left leg cut); format: in vivo, rat
Method: 9-week-old Wistar male rats were bred each being fed a normal diet for breeding and water ad libitum under the conditions with a 12 hours light-dark cycle at a temperature of 21° C. to 25° C. and were accustomed to the environment in advance. The rats were divided into two groups of 10 rats per group, and each group was bred with a normal diet (control group) or a diet to which astaxanthin was added (Ax group) fed ad libitum. The diet to which astaxanthin was added was prepared by mixing free astaxanthin at 0.02%. At one week after the start of ingestion of astaxanthin-added diet, the sciatic nerve of the left leg was cut and muscle of the left lower extremity was inactivated. After breeding for further two weeks, rats were killed, triceps surae (soleus muscle, gastrocnemius, and plantaris) were extracted from left leg (limb in which nerves were removed) and right leg (control limb), respectively, and the wet weight of the gastrocnemius was measured. The atrophy rate was calculated using the difference of the wet weight of the gastrocnemius of left lower limb to the wet weight of the gastrocnemius of right lower limb with respect to each group Table 7. […]

[3] = relative to β-carotene; cited from earlier work
[4] = Takahashi Jiro et al, Rinsho Iyaku 2004; cited from earlier work

CC1=C(/C=C/C(C)=C/C=C/C(C)=C/C=C/C=C(C)/C=C/C=C(C)/C=C/C2=C(C)C(=O)C(O)CC2(C)C)C(C)(C)CC(O)C1=O (stereo not drawn) [astaxanthin, 3,3′-dihydroxy-β,β-carotene-4,4′-dione]
Albumin level in urine ([1]; at the end (12 weeks), db/db mice, diet with 0.02% astaxanthin (AstaReal 50F)): 77.8 ± 44.6 mg/dL
Albumin level in urine ([1]; at the start, astaxanthin-administered db/db mice): 46.2 ± 1.5 mg/dL
blood glucose levels ([1]; diabetic db/db mice, diet with 0.02% astaxanthin, 12 weeks): reduces blood glucose levels
enlargement of glomerular mesangium (microscope) ([1]; kidney of db/db(Ax) vs db/db mice): apparently moderated
Gastrocnemius Atrophy rate ([2]; difference of wet weight of left to right gastrocnemius, Ax group): 37.7%
atrophy rate compared with the control group ([2]; risk rate 5% or less): smaller value of atrophy rate
antioxidant effect, times as strong as β-carotene [3]: about 40 times
mutagenicity [4]: has not been observed having any mutagenicity
